According to patent US11254663B2 (BRISTOL-MYERS SQUIBB COMPANY, priority 2019, dated 2022):

Biological target: FXR (Homo sapiens (Human), UniProt Q96RI1)
Assay: FXR EC50 (FXR agonist potency reported with each Example)
Format: cell-based

FXR, sequence (Q96RI1 262-486): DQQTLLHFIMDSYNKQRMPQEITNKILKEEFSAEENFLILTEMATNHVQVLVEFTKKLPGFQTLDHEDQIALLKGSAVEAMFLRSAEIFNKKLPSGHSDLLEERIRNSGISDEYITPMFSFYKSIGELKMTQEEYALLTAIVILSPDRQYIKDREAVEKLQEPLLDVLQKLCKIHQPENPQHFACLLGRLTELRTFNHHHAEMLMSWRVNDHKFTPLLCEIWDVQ

| Compound | EC50 [nM] |
| --- | --- |
| O=C(C1CCC(F)(F)C1)N(CC12CCC(c3nc(C4CC4)no3)(CC1)OC2)c1cccc(-c2cc(C3CC3)on2)c1 (stereo not drawn) [Example 202, N-((1-(3-cyclopropyl-1,2,4-oxadiazol-5-yl)-2-oxabicyclo[2.2.2]octan-4-yl)methyl)-N-(3-(5-cyclopropylisoxazol-3-yl)phenyl)-3,3-difluorocyclopentane-1-carboxamide] | 299 |
| O=C(N(CC12CCC(c3nnc(C4CC4)o3)(CC1)CC2)c1cccc(-c2nc(C3CC3)no2)c1)C12CC(F)(C1)C2 [Example 137, N-(3-(3-cyclopropyl-1,2,4-oxadiazol-5-yl)phenyl)-N-((4-(5-cyclopropyl-1,3,4-oxadiazol-2-yl)bicyclo[2.2.2]octan-1-yl)methyl)-3-fluorobicyclo[1.1.1]pentane-1-carboxamide] | 43 |
| CC(F)(F)c1nc(C23CCC(CN(C(=O)C45CC(F)(C4)C5)c4cccc(-c5noc(C6(C)CC6)n5)c4)(CC2)CC3)no1 [Example 179, N-((4-(5-(1,1-difluoroethyl)-1,2,4-oxadiazol-3-yl)bicyclo[2.2.2]octan-1-yl)methyl)-3-fluoro-N-(3-(5-(1-methylcyclopropyl)-1,2,4-oxadiazol-3-yl)phenyl)bicyclo[1.1.1]pentane-1-carboxamide] | 58 |
| O=C(N(CC12CCC(c3nc(C4CC4)no3)(CC1)CC2)c1cccc(-c2cnc(C3CCOCC3)o2)c1)C12CC(F)(C1)C2 [Example 35, N-((4-(3-cyclopropyl-1,2,4-oxadiazol-5-yl)bicyclo[2.2.2]octan-1-yl)methyl)-3-fluoro-N-(3-(2-(tetrahydro-2H-pyran-4-yl)oxazol-5-yl)phenyl)bicyclo[1.1.1]pentane-1-carboxamide] | 251 |
| CC1(c2nc(C34CCC(CN(C(=O)C56CC(F)(C5)C6)c5cccc(-c6nc(C7CC7)no6)c5)(CC3)CC4)no2)COC1 [Example 122, N-(3-(3-cyclopropyl-1,2,4-oxadiazol-5-yl)phenyl)-3-fluoro-N-((4-(5-(3-methyloxetan-3-yl)-1,2,4-oxadiazol-3-yl)bicyclo[2.2.2]octan-1-yl)methyl)bicyclo[1.1.1]pentane-1-carboxamide] | 28 |
| Cn1nc(-c2cccc(N(CC34CCC(c5nc(C6CC6)no5)(CC3)CC4)C(=O)C34CC(F)(C3)C4)c2)cc1C1CC1 [Example 75, N-((4-(3-cyclopropyl-1,2,4-oxadiazol-5-yl)bicyclo[2.2.2]octan-1-yl)methyl)-N-(3-(5-cyclopropyl-1-methyl-1H-pyrazol-3-yl)phenyl)-3-fluorobicyclo[1.1.1]pentane-1-carboxamide] | 247 |
| O=C(N(CC12CCC(c3nc(C4CC4)no3)(CC1)OC2)c1cccc(-c2cc(C3CC3)on2)c1)C12CC(F)(C1)C2 [Example 199, N-((1-(3-cyclopropyl-1,2,4-oxadiazol-5-yl)-2-oxabicyclo[2.2.2]octan-4-yl)methyl)-N-(3-(5-cyclopropylisoxazol-3-yl)phenyl)-3-fluorobicyclo[1.1.1]pentane-1-carboxamide] | 281 |
| O=C(C1CC(F)(F)C1)N(CC12CCC(c3nc(C4CC4)no3)(CC1)CC2)c1cccc(-c2nc(C(F)F)co2)c1 [Example 41, N-((4-(3-cyclopropyl-1,2,4-oxadiazol-5-yl)bicyclo[2.2.2]octan-1-yl)methyl)-N-(3-(4-(difluoromethyl)oxazol-2-yl)phenyl)-3,3-difluorocyclobutane-1-carboxamide] | 465 |
| O=C(N(CC12CCC(c3nc(C4CC4)no3)(CC1)CC2)c1cccc(-c2cnc(C3CC3)o2)c1)C12CC(F)(C1)C2 [Example 23, N-((4-(3-cyclopropyl-1,2,4-oxadiazol-5-yl)bicyclo[2.2.2]octan-1-yl)methyl)-N-(3-(2-cyclopropyloxazol-5-yl)phenyl)-3-fluorobicyclo[1.1.1]pentane-1-carboxamide] | 72 |
| O=C(N(CC12CCC(c3nc(C4CC4)no3)(CC1)CC2)c1cccc(-c2cnn(CC(F)(F)F)c2)c1)C12CC(F)(C1)C2 [Example 162, N-((4-(3-cyclopropyl-1,2,4-oxadiazol-5-yl)bicyclo[2.2.2]octan-1-yl)methyl)-3-fluoro-N-(3-(1-(2,2,2-trifluoroethyl)-1H-pyrazol-4-yl)phenyl)bicyclo[1.1.1]pentane-1-carboxamide] | 116 |
| CCOc1nnc(-c2cccc(N(CC34CCC(c5nc(C6CC6)no5)(CC3)CC4)C(=O)C3CCC(F)(F)C3)c2)o1 (stereo not drawn) [Example 55, N-((4-(3-cyclopropyl-1,2,4-oxadiazol-5-yl)bicyclo[2.2.2]octan-1-yl)methyl)-N-(3-(5-ethoxy-1,3,4-oxadiazol-2-yl)phenyl)-3,3-difluorocyclopentane-1-carboxamide] | 127 |
| N#CC1(c2ccc(C34CCC(CN(C(=O)C56CC(F)(C5)C6)c5cccc(-c6nc(C7CC7)no6)c5)(CC3)CO4)cc2)CC1 [Example 143, N-((1-(4-(1-cyanocyclopropyl)phenyl)-2-oxabicyclo[2.2.2]octan-4-yl)methyl)-N-(3-(3-cyclopropyl-1,2,4-oxadiazol-5-yl)phenyl)-3-fluorobicyclo[1.1.1]pentane-1-carboxamide] | 89 |
| O=C(N(CC12CCC(c3nc(C4CC4)no3)(CC1)CC2)c1cccc(-c2nnc(C3CC3)o2)c1)C12CC(F)(C1)C2 [Example 86, N-((4-(3-cyclopropyl-1,2,4-oxadiazol-5-yl)bicyclo[2.2.2]octan-1-yl)methyl)-N-(3-(5-cyclopropyl-1,3,4-oxadiazol-2-yl)phenyl)-3-fluorobicyclo[1.1.1]pentane-1-carboxamide] | 123 |
| O=C(C1CC(F)(F)C1)N(CC12CCC(c3nc(C4CC4)no3)(CC1)CC2)c1cccc(-c2cc(C3CC3)on2)c1 [Example 60, N-((4-(3-cyclopropyl-1,2,4-oxadiazol-5-yl)bicyclo[2.2.2]octan-1-yl)methyl)-N-(3-(5-cyclopropylisoxazol-3-yl)phenyl)-3,3-difluorocyclobutane-1-carboxamide] | 230 |
| CC(C)c1nc(-c2cccc(N(CC34CCC(c5nc(C6CC6)no5)(CC3)CC4)C(=O)C34CC(F)(C3)C4)c2)no1 [Example 109, N-((4-(3-cyclopropyl-1,2,4-oxadiazol-5-yl)bicyclo[2.2.2]octan-1-yl)methyl)-3-fluoro-N-(3-(5-isopropyl-1,2,4-oxadiazol-3-yl)phenyl)bicyclo[1.1.1]pentane-1-carboxamide] | 55 |
| CC(C)(C)c1noc(C23CCC(CN(C(=O)C45CC(F)(C4)C5)c4cccc(-c5nnc(C6CC6)o5)c4)(CC2)CC3)n1 [Example 153, N-((4-(3-(tert-butyl)-1,2,4-oxadiazol-5-yl)bicyclo[2.2.2]octan-1-yl)methyl)-N-(3-(5-cyclopropyl-1,3,4-oxadiazol-2-yl)phenyl)-3-fluorobicyclo[1.1.1]pentane-1-carboxamide] | 73 |
| O=C(C1CCC(F)(F)C1)N(CC12CCC(c3nc(CC4CC4)no3)(CC1)CC2)c1cccc(-c2nc(C3CC3)no2)c1 (stereo not drawn) [Example 69, N-(3-(3-cyclopropyl-1,2,4-oxadiazol-5-yl)phenyl)-N-((4-(3-(cyclopropylmethyl)-1,2,4-oxadiazol-5-yl)bicyclo[2.2.2]octan-1-yl)methyl)-3,3-difluorocyclopentane-1-carboxamide] | 474 |
| CCn1cc(-c2cccc(N(CC34CCC(c5nc(C6CC6)no5)(CC3)CC4)C(=O)C34CC(F)(C3)C4)c2)oc1=O [Example 80, N-((4-(3-cyclopropyl-1,2,4-oxadiazol-5-yl)bicyclo[2.2.2]octan-1-yl)methyl)-N-(3-(3-ethyl-2-oxo-2,3-dihydrooxazol-5-yl)phenyl)-3-fluorobicyclo[1.1.1]pentane-1-carboxamide] | 265 |
| Cn1nc(C2CC2)cc1C12CCC(CN(C(=O)C34CC(F)(C3)C4)c3cccc(-c4noc(C(C)(C)C)n4)c3)(CC1)CC2 [Example 165, N-(3-(5-(tert-butyl)-1,2,4-oxadiazol-3-yl)phenyl)-N-((4-(3-cyclopropyl-1-methyl-1H-pyrazol-5-yl)bicyclo[2.2.2]octan-1-yl)methyl)-3-fluorobicyclo[1.1.1]pentane-1-carboxamide] | 124 |
| O=C(C1CC(F)(F)C1)N(CC12CCC(c3nc(C4CC4)no3)(CC1)OC2)c1cccc(-c2nc(C3CC3)no2)c1 [Example 197, N-((1-(3-cyclopropyl-1,2,4-oxadiazol-5-yl)-2-oxabicyclo[2.2.2]octan-4-yl)methyl)-N-(3-(3-cyclopropyl-1,2,4-oxadiazol-5-yl)phenyl)-3,3-difluorocyclobutane-1-carboxamide] | 965 |
| CC(C)(C)c1nc(C23CCC(CN(C(=O)C45CC(F)(C4)C5)c4cc(-c5cn[nH]c5)ccn4)(CC2)CC3)no1 [Example 211, N-(4-(1H-pyrazol-4-yl)pyridin-2-yl)-N-((4-(5-(tert-butyl)-1,2,4-oxadiazol-3-yl)bicyclo[2.2.2]octan-1-yl)methyl)-3-fluorobicyclo[1.1.1]pentane-1-carboxamide] | 17 |
| CCn1cc(-c2cccc(N(CC34CCC(c5nc(C6CC6)no5)(CC3)CC4)C(=O)C3CC(F)(F)C3)c2)oc1=O [Example 81, N-((4-(3-cyclopropyl-1,2,4-oxadiazol-5-yl)bicyclo[2.2.2]octan-1-yl)methyl)-N-(3-(3-ethyl-2-oxo-2,3-dihydrooxazol-5-yl)phenyl)-3,3-difluorocyclobutane-1-carboxamide] | 945 |
| CC1(c2nc(-c3cccc(N(CC45CCC(c6nc(C7CC7)no6)(CC4)CC5)C(=O)C45CC(F)(C4)C5)c3)no2)CC1 [Example 106, N-((4-(3-cyclopropyl-1,2,4-oxadiazol-5-yl)bicyclo[2.2.2]octan-1-yl)methyl)-3-fluoro-N-(3-(5-(1-methylcyclopropyl)-1,2,4-oxadiazol-3-yl)phenyl)bicyclo[1.1.1]pentane-1-carboxamide] | 58 |
| O=C(N(CC12CCC(c3cnc(C(F)(F)F)nc3)(CC1)OC2)c1cccc(-c2noc(C(F)F)n2)c1)C12CC(F)(C1)C2 [Example 182, N-(3-(5-(difluoromethyl)-1,2,4-oxadiazol-3-yl)phenyl)-3-fluoro-N-((1-(2-(trifluoromethyl)pyrimidin-5-yl)-2-oxabicyclo[2.2.2]octan-4-yl)methyl) bicyclo[1.1.1]pentane-1-carboxamide] | 2000 |
